According to PMC10689823, “Discovery of a Drug-like, Natural Product-Inspired DCAF11 Ligand Chemotype” (Nature Communications, 2023):
Values joined by “and” are separate entries in the source; they are usually repeats but may differ in a detail not shown here. Identical values can stand only once.

Test system: BRD2
Assay: In-Cell Western for BRD2 levels in Hep G2 cells
Format: cell-based
Conditions: then 9 (10 μM, 4 h); for BRD2/Vinculin intensity (relative to control group): Hep G2 cells, single repeats, Fig. 4h; for Value (Mean ± SD): Relative BRD2 levels remaining in Hep G2 cells after treatment with compounds followed by treatment with 9, with DMSO control for normalization: qualitative ICW assay, Supplementary Table 1
Description: Hep G2 cells were seeded in 96-well plates and incubated for 24 h. Compounds were added for the indicated time at the indicated concentration. Cells were then washed once with PBS and fixed with 4% paraformaldehyde for 30 min at room temperature. The fixed cells were permeabilized with 0.5 % Triton-X100 for 15 min followed by block with Intercept® Blocking Buffer (LI-COR Biosciences, 927-70001) for 1 h at room temperature. Primary antibodies for BRD2 (1:800) and Vinculin (1:2000) were diluted with LI-COR buffer and incubated with the cells at 4 °C overnight. Cells were washed with PBS-T, and the secondary antibodies conjugated to IRDye (1:1000, LI-COR Biosciences) were added to the cells for 1 h at room temperature. After washing the cells, the signal was recorded with the Odyssey® CLx Infrared Imaging System (LI-COR Biosciences) and the protein levels were analyzed by Image Studio (LI-COR Biosciences). BRD2 protein levels were normalized to the levels of reference protein vinculin.

[1] = pretreated with compound at 30 μM 1 h

Structure (SMILES)	BRD2/Vinculin intensity (relative to control group) [1]	Value (Mean ± SD): Relative BRD2 levels remaining in Hep G2 cells after treatment with compounds followed by treatment with 9, with DMSO control for normalization (pretreated at 30 μM 1 h)	BRD2/Vinculin intensity (relative to control group) (pretreated with MLN4924 at 1 μM 1 h)	Value (Mean ± SD): Relative BRD2 levels remaining in Hep G2 cells after treatment with compounds followed by treatment with 9, with DMSO control for normalization (MLN4924 at 1 μM 1 h)
CCn1cc(C=C2C(=O)N(C)c3ccccc32)c2ccccc21 [Compound 22]	27.5998 and 30.1143 and 27.5093 and 28.0162	28.31 ± 1.06		
CCOC(=O)c1ccc(-c2ccc(C=C3C(=O)Nc4ccc(Br)cc43)o2)cc1 [Compound 25]	36.1651 and 31.9974 and 32.0528 and 31.1097	32.83 ± 1.96		
NS(=O)(=O)OC[C@@H]1C[C@@H](n2ccc3c(N[C@H]4CCc5ccccc54)ncnc32)C[C@@H]1O [MLN4924, reference compound]			108.675 and 116.153 and 114.111	112.98 ± 3.16
Cc1cc(C=C2C(=O)Nc3cc(Cl)ccc32)c(C)n1-c1ccc(Cl)cc1 [Compound 20]	18.6668 and 28.7239 and 22.4508 and 22.3561	23.05 ± 3.61		
O=C1Nc2cc(Br)ccc2C1=Cc1cc(Br)c(OCCO)c(Br)c1 [Compound 46]		70.23 ± 9.63		
Cc1cccc(-n2c(C=C3C(=O)Nc4ccc(Br)cc43)nc3ccccc3c2=O)c1 [Compound 23]	33.3864 and 29.794 and 26.5816 and 25.9636	28.93 ± 2.95		
O=C1Nc2cc(Cl)ccc2C1=Cc1c[nH]c2ccc(Br)cc12 [Compound 19]	19.139 and 23.0411 and 26.0065 and 21.6242	22.45 ± 2.48		
O=C1Nc2cccc(Br)c2C1=Cc1cc(Br)c(OCCO)c(Br)c1 [Compound 43]	65.9619 and 44.3044 and 51.8651 and 61.4106	55.89 ± 8.40		
O=C1Nc2c(Br)cccc2C1=Cc1cc(Br)c(OCCO)c(Br)c1 [Compound 44]	58.0241 and 42.9089 and 68.5528 and 58.6725	57.04 ± 9.16		
COc1cc(C)c(C=C2C(=O)Nc3ccccc32)cc1C [Compound 31]	36.8879 and 36.7406 and 37.2822 and 33.8929	36.20 ± 1.35		
O=C1Nc2ccc(Br)cc2C1=Cc1ccc(-c2ccc(Cl)cc2)o1 [Compound 24]	33.2997 and 37.4269 and 27.7324 and 30.7224	32.30 ± 3.56		
COc1cccc(C=C2C(=O)Nc3ccc(Br)cc32)c1OCc1ccccc1 [Compound 27]	30.4848 and 27.4717 and 21.0618 and 23.6161	25.66 ± 3.60		
CCOc1ccc(Br)c(C=C2C(=O)Nc3ccc(Br)cc32)c1 [Compound 30]	30.1563 and 42.48 and 35.4039 and 36.6749	36.18 ± 4.38		
COc1cc(C=C2C(=O)Nc3ccc(Br)cc32)cc(OC)c1OC [Compound 38]	42.8563 and 47.1155 and 46.6713 and 48.8801	46.38 ± 2.20		
CN1C(=O)C(=Cc2cc(Br)c(OCCO)c(Br)c2)c2cc(Br)ccc21 (mixture of isomers) [Compound 45]	68.8291 and 61.2096 and 73.2245 and 67.5028	67.69 ± 4.30		
O=C1C(=Cc2cc(Br)c(OCCO)c(Br)c2)c2ccccc2N1c1ccccc1 [Compound 47]		72.76 ± 4.44		
O=C1Nc2ccccc2C1=CC=Cc1ccccc1 [Compound 28]	22.3518 and 31.2898 and 26.3948 and 28.7193	27.19 ± 3.29		
CCOc1cccc(C=C2C(=O)Nc3ccc(Br)cc32)c1O [Compound 34]	32.5833 and 35.4683 and 36.0421 and 51.0354	38.78 ± 7.19		
COc1cc2c(cc1OC)C(=Cc1ccc(OC)c(OC)c1OC)C(=O)N2 [Compound 35]		43.80 ± 10.34		
O=C1Nc2cc(Cl)c(Cl)cc2C1=Cc1cc(Br)c(OCCO)c(Br)c1 [Compound 33]	39.4036 and 41.0431 and 32.5156 and 41.2316	38.55 ± 3.55		
O=C1Nc2ccc([N+](=O)[O-])cc2C1=Cc1cc(Br)c(OCCO)c(Br)c1 [Compound 41]	35.3006 and 58.464 and 60.939	51.57 ± 11.55		
COc1cc2c(cc1OC)C(=CC=Cc1ccc(N(C)C)cc1)C(=O)N2 [Compound 29]	35.199 and 32.8298 and 30.2931 and 29.1162	31.86 ± 2.35		
Cc1ccc(C=C2C(=O)Nc3ccc(Br)cc32)o1 [Compound 21]	35.3621 and 27.9558 and 29.5667 and 18.9355	27.96 ± 5.89		
O=C1Nc2ccc(Br)cc2C1=Cc1ccc2ccccc2n1 [Compound 26]	39.8782 and 39.8556 and 38.9972 and 37.1452	38.97 ± 1.11		
COc1cc(OC)c(OC)cc1C=C1C(=O)Nc2ccc(Br)cc21 [Compound 32]	37.3799 and 42.1343 and 35.9887 and 37.382	38.22 ± 2.33		
COc1cc(C=C2C(=O)N(C(C)=O)c3ccc(Br)cc32)c(Br)cc1OC(C)=O [Compound 37]	55.6586 and 50.2433 and 39.6211 and 39.558	46.27 ± 6.95		
CCOc1c(O)ccc(C=C2C(=O)Nc3ccc(Br)cc32)c1[N+](=O)[O-] [Compound 39]	52.2917 and 48.4313 and 42.763 and 42.1712	46.41 ± 4.18		
COc1cc(C=C2C(=O)Nc3ccc(Br)cc32)ccc1O [Compound 36]	48.1488 and 40.4194 and 43.1435 and 45.121	44.21 ± 2.82		
CC(=O)N1C(=O)C(=Cc2cc(Br)c(OCCO)c(Br)c2)c2cc(Br)ccc21 (mixture of isomers) [Compound 40]	50.1992 and 43.5119 and 52.0339 and 53.5687	49.83 ± 3.84		
